According to patent publication US20190031780A1, “COMPOSITIONS AND METHODS FOR TARGETING CANCER STEM CELLS” (Siamab Therapeutics, Inc., priority 2016, published 2019):

B1: S3F: anti-STn IgG2a antibody: mouse 3F1 variable domains (SEQ ID NO: 1, 2) with mouse IgG2a constant domains; full chains SEQ ID NO: 7, 8 (antibody)
heavy: QVQLQQSDAELVKPGASVKISCKASGYTFTDHAIHWVKQKPEQGLDWIGYISPGNGDIKYNEKFKDKVTLTADKSSSTACMHLNSLTSEDSAVYFCKRSLLALDYWGQGTTLTVSSAKTTAPSVYPLAPVCGDTTGSSVTLGCLVKGYFPEPVTLTWNSGSLSSGVHTFPAVLQSDLYTLSSSVTVTSSTWPSQSITCNVAHPASSTKVDKKIEPRGPTIKPCPPCKCPAPNLLGGPSVFIFPPKIKDVLMISLSPIVTCVVVDVSEDDPDVQISWFVNNVEVHTAQTQTHREDYNSTLRVVSALPIQHQDWMSGKEFKCKVNNKDLPAPIERTISKPKGSVRAPQVYVLPPPEEEMTKKQVTLTCMVTDFMPEDIYVEWTNNGKTELNYKNTEPVLDSDGSYFMYSKLRVEKKNWVERNSYSCSVVHEGLHNHHTTKSFSRTPGK
light: DIVMTQSHKFMSTSVGDRVSITCKASQDVGTNIAWYQQKPGRSPKVLIYSASTRHTGVPDRFTGSGSGTDFTLTISNVQSEDLTDYFCQQYSSFPLTFGVGTKLELKRADAAPTVSIFPPSSEQLTSGGASVVCFLNNFYPKDINVKWKIDGSERQNGVLNSWTDQDSKDSTYSMSSTLTLTKDEYERHNSYTCEATHKTSTSPIVKSFNRNEC
B2: SIA101: anti-STn IgG2a antibody: SIA101 variable domains (SEQ ID NO: 3, 4) with mouse IgG2a constant domains (antibody, V domains shown)
VH: QVQLQQSDXELVKPGASVKISCKASGYTFTDHAIHWVKQKPEQGLEWIGYFSPGNDDIKYNEKFRGKATLTADKSSSTAYMQLNSLSSDDSAVYFCKRSLSTPYWGQGTLXTVSA
VL: DIVMTQSPSSLTVTAGEKVTMSCKSSQSLLNRGNHKNYLTWYRQKPGLPPKLLIYWASTRESGVPDRFTGSGSGTDFALTISSVQAEDLAVYYCQNDYTYPYTFGGGTKLEIKR
modifications: not fully specified; mouse IgG2a constant domains; MOD_RES (9)..(9) Any amino acid; MOD_RES (111)..(111) Any amino acid

Columns and labels:
OVCAR3 cells = assay: OVCAR3 cell viability by MTT assay, chemotherapeutic vs antibody treatment (Example 15); type: cell-based, human; settings: 72 hours, increasing doses, normalized to vehicle control
Protocol: The viability of OVCAR3 cells grown in culture was assessed following treatment with carboplatin, paclitaxel, carboplatin and paclitaxel, or S3F (FIG. 7). OVCAR3 cells were cultured for 72 hours with the indicated concentrations of paclitaxel, carboplatin, paclitaxel/carboplatin combination, or S3F. Relative cell viability was determined by measuring cellular metabolic activity using an MTT assay (EMD Millipore, Billerica, Mass.). For each experiment, all values were normalized to the vehicle control.

STn+CD133+ OV90 cells = assay: Cell viability of OV90 cells by MTT assay, chemotherapeutic vs antibody treatment (Example 6); type: cell-based, human; settings: OV90 cells cultured 72 to 144 hours; normalized to vehicle only control
Protocol: STn+CD133+ OV90 and CSC sub-fractions were treated with different concentrations of paclitaxel (FIG. 2A), carboplatin (FIG. 2B), paclitaxel and carboplatin (FIG. 2C) or with unconjugated anti-STn antibody S3F (FIG. 2D). OV90 cells were cultured for 72 to 144 hours with the indicated chemotherapeutic drug or antibody concentrations and cell viability was analyzed by MTT assay. All values were normalized to a vehicle only control.

OVCAR4 cells = assay: Relative frequency of OVCAR4 STn/CD133 subpopulations after chemotherapy treatment (Example 13); type: cell-based, human; settings: vs vehicle
Protocol: The potential for anti-STn antibodies to target stem cells after treatment of OVCAR4 cells with chemotherapy agents (paclitaxel and/or carboplatin) was evaluated. The relative frequency of the OVCAR4 subpopulations observed following treatment with either vehicle (shaded) or the indicated chemotherapy regimen is shown in FIG. 6.

[1] = tested on: STn positive cells in OVCAR3 xenograft tissues; assay: STn expression in xenograft tissues by flow cytometry at end of OVCAR3 in vivo study (Example 20); parameters: species or system NOD/SCID mice; settings: 5 mg/kg weekly
Protocol: OVCAR3 cells were injected into NOD/SCID mice to generate tumor xenografts. Once a sufficient number of mice developed tumor volumes ranging from 200-500 mm^3, mice were randomized into 5 groups (about 6-7 mice/group) with essentially equivalent group mean tumor volumes. Each group received weekly treatments according to the following Table.
At the end of the study, xenograft tissues were processed to a single cell suspension and assessed for STn expression by flow cytometry. Around 80% of the cells in tissues from groups 1, 4, and 5 were STn positive, while the cells from group 2 mice were less than 40% STn positive (a reduction of about 50%) and cells from group 3 mice were around 10% STn positive (a reduction of greater than 85%).

ovarian cancer tissue = assay: Immunohistochemical staining of ovarian cancer tissue sections (Example 9); settings: primary antibody; compared to normal IgG and no primary antibody
From the text: Tissue sections from ovarian cancer tissue were subjected to immunohistochemical staining to identify cells expressing STn using S3F antibody as a primary antibody. Bound antibody was detected using a peroxidase-based secondary detection system.

Molecule | relative cell viability (metabolic activity, MTT assay) (OVCAR3 cells) | cell viability (MTT assay) (STn+CD133+ OV90 cells) | relative frequency of STn-negative subpopulations (STn-/CD133- and STn-/CD133+) (OVCAR4 cells) | relative frequency of STn-positive subpopulations (STn+/CD133- and STn+/CD133+) (OVCAR4 cells) | STn positive cells in xenograft tissues [1] | immunohistochemical staining of STn-expressing cells (ovarian cancer tissue)
CC(=O)O[C@H]1C(=O)[C@@]2(C)[C@H]([C@H](OC(=O)c3ccccc3)[C@]3(O)C[C@H](OC(=O)[C@H](O)[C@@H](NC(=O)c4ccccc4)c4ccccc4)C(C)=C1C3(C)C)[C@]1(OC(C)=O)CO[C@@H]1C[C@@H]2O [paclitaxel] | decreased cell viability | significantly reduced | decrease | increase |  | 
N.N.O=C([O-])C1(C(=O)[O-])CCC1.[Pt+2] [carboplatin] | decreased cell viability | significantly reduced | decrease | increase |  | 
B1 | no loss of viability | no significant effect |  |  | Around 80% | Numerous cells showed positive staining
B2 |  |  |  |  | Around 80% | 
